Series [1] has as its target T1, human GLP-1 receptor (Homo sapiens, UniProt P43220). The series is described as follows: Competitive binding (IC50) on HEK293-hGLP-1R cells with radioligand [Nle^14, [^125I]Tyr(3-I)^40]exendin-4. Details: Dr. Timothy Kieffer (University of British Columbia); host or cells: HEK293. To be noted: w/o BSA, HBSS.
The target in series [2] is T1, human GLP-1 receptor. The series is described as above. Details: Dr. Timothy Kieffer (University of British Columbia); host or cells: HEK293. To be noted: for IC50 ± SD (result in words): ligand range 10^-11 to 10^-5 M. The method, then:
Dr. Timothy Kieffer (University of British Columbia, Vancouver, Canada). Cells were cultivated in high glucose DMEM (25.0 mM D-glucose, 3.97 mM GlutaMAX; REF-number: 61965–026; Fisher Scientific GmbH, Schwerte, Germany) supplemented with 10% fetal bovine serum and 1 mM sodium pyruvate. Medium for stably transfected HEK293-hGLP-1R cells was constantly supplemented with 1 mg/mL Geneticin (G-418 Biochrom, Merck KgaA, Darmstadt, Germany) as selection antibiotic. The cell line was kept at 37 °C in a humidified 5% CO2 atmosphere. One day (24 ± 2 h) prior to all in vitro experiments, the cultivated HEK293-h-GLP-1R cells were harvested using a mixture of trypsin/ethylenediaminetetraacetic acid (0.05%/0.02%) in phosphate-buffered saline (PBS) (Gibco, Germany) and centrifuged at 1300 rpm (ca. 190×g) for 3 min at room temperature (Heraeus Megafuge 16, Thermo Fisher, Germany). After centrifugation, the supernatant was disposed and the cell pellet was resuspended in culture medium. Cells were counted with a Neubauer hemocytometer (Paul Marienfeld GmbH & Co. KG, Lauda-Königshofen, Germany) and seeded in 24-well plates. IC50 values were determined by transferring 1.50 × 10^5 cells/mL per well into 24-well plates.
Detailed information on affinity experiments is provided in the SI. In brief, competitive binding studies were determined on HEK293-hGLP-1R cells (1.50 × 10^5 cells in 1 mL/well) after incubation at 4 °C for 2 hours, using [^125I]Tyr(3-I)^40–3 (0.41 nM/well) as reference radioligand (n = 3).
Dr. Timothy J. Kieffer (University of British Columbia, Vancouver, Canada). Cells were cultivated in high glucose DMEM (25.0 mM D-glucose, 3.97 mM GlutaMAX; REF-number: 61965-026; Fisher Scientific GmbH, Schwerte, Germany) supplemented with 10% fetal bovine serum and 1 mM sodium pyruvate. Medium for stably transfected HEK293-hGLP-1R cells was constantly supplemented with 1 mg/mL Geneticin (G-418 Biochrom, Merck KgaA, Darmstadt, Germany) as selection antibiotic. The cell line was kept at 37 °C in a humidified 5% CO2 atmosphere. One day (24 ± 2 h) prior to all in vitro experiments, the cultivated cells were harvested using a mixture of trypsin/ethylenediaminetetraacetic acid (0.05%/0.02%) in phosphate-buffered saline (PBS) (Merck KgaA, Darmstadt, Germany) and centrifuged at 1300 rpm (ca. 190 × g) for 3 min at room temperature (Heraeus Megafuge 16, Thermo Fisher Scientific, Darmstadt, Germany). After centrifugation, the supernatant was disposed and the cell pellet was resuspended in culture medium. Cells were counted with a Neubauer hemocytometer (Paul Marienfeld GmbH & Co. KG, Lauda-Königshofen, Germany) and seeded in 24-well plates (Greiner Bio-One, Kremsmünster, Austria). IC50 values were determined by transferring 1.50 × 10^5 cells/mL per well into 24-well plates (Greiner Bio-One, Kremsmünster, Austria).
The culture medium was removed and the cells were washed with 500 µL of Hank’s balanced salt solution (HBSS) (Merck KGaA, Darmstadt, Germany), containing 1% bovine serum albumin (BSA) (Merck KGaA, Darmstadt, Germany). Afterwards, 200 µL of HBSS (1% BSA) were added to each well and equilibrated on ice (4 °C) for 15 min. 25 µL/well of either HBSS (1% BSA) (= control) or of solutions, containing the respective unlabeled ligand in increasing concentrations (10^-10 - 10^-4 M in HBSS) were added, followed by the addition of 25 µL of [Nle^14, [^125I]Tyr(3-I)^40]exendin-4 in HBSS (1% BSA) to each well. Experiments were carried out in triplicates for each concentration. The final concentrations of unlabeled ligand ranged from 10^-11 - 10^-5 M and the final radioligand concentration was 0.41 nM in all binding assays. The cells were incubated for two hours at 4 °C. Incubation was terminated by removal of the incubation medium. The cells were washed with 250 µL of HBSS (1% BSA) and the wash medium was combined with the respective supernatant. This fraction represents the amount of free radioligand. The cells were lysed by addition of 250 µL of 1 M aqueous NaOH. […]

On the set-up of series [3]: method as in Gotthardt et al., 2007. Particulars: rats, pre-administration; ref Gotthardt et al., 2007; cited from earlier work.
Series [4] can be described thus: Stability study of the reference radioligand stock solution (RCP by radio-RP-HPLC). It is filed as physicochemical. How it is done: ^125I-labeling. The radioiodinated reference ligand [Nle^14, [^125I]Tyr(3-I)^40]exendin-4 ([^125I]Tyr(3-I)^40–3) was prepared via the Iodogen method (Salacinski et al., [1981]), with some minor modifications. […] The solution was transferred to a vial, which has been precoated with 15.0 μg Iodogen (34.7 nmol, 139 eq.). Afterwards, 15 ± 5 MBq [^125I] NaI (74 MBq/nmol, 3.7 GBq/mL in 40 mM NaOH, Hartmann Analytic, Braunschweig, Germany) (5.00 μL, 250 pmol, 1.00 eq.) were added, the reaction solution was incubated for 15 min at r.t. and 150 μL thereof were purified by radio-RP-HPLC (0% B (2 min) ➔ 0–37.5% B (3 min) ➔ 37.5% B (35 min) ➔ 38% B (10 min), Method A*, 1 mL/min) to afford 3.15 MBq (48.8% RCY, > 99% RCP) of product [^125I]Tyr(3-I)^40–3. The radioligand was stored in the HPLC solvent (stock solution) at − 80 °C until further use. The radioligand stock solution was used to a maximum of 14 days to ensure a RCP of > 92% (Table 1 in the Additional file 1) and replaced by freshly prepared radioligand afterwards. Prior to the in vitro experiments, the radioligand was dissolved in HBSS (with or w/o 1% BSA) to achieve a final concentration of 0.41 nM in the respective assays. *Method A: solvent A = water + 0.1% TFA, solvent B = acetonitrile + 2% water + 0.1% TFA.
Table 1: Stability study of reference radioligand [^125I]Tyr(3-I)^40]-3, (n = 1).

This is an account of results in PMC8387526, “Small peptide-based GLP-1R ligands: an approach to reduce the kidney uptake of radiolabeled GLP-1R-targeting agents?” (EJNMMI Radiopharmacy and Chemistry, 2021).

Entries after “also recorded” stand apart in the source; their conditions may differ. Square brackets hold non-standard residues; d marks the D form. Peptide text beside a SMILES is read from it. * marks the point of attachment. Benzoyl(4-SiFtBu2) = CC(C)(C)[Si](F)(c1ccc(C(=O)*)cc1)C(C)(C)C; αMePhe(2-F) = C[C@](N)(Cc1ccccc1F)C(=O)O; hPhe = N[C@@H](CCc1ccccc1)C(=O)O; Dap = NC[C@H](N)C(=O)O; Aib = CC(C)(N)C(=O)O

T1 sequence (P43220 24-463): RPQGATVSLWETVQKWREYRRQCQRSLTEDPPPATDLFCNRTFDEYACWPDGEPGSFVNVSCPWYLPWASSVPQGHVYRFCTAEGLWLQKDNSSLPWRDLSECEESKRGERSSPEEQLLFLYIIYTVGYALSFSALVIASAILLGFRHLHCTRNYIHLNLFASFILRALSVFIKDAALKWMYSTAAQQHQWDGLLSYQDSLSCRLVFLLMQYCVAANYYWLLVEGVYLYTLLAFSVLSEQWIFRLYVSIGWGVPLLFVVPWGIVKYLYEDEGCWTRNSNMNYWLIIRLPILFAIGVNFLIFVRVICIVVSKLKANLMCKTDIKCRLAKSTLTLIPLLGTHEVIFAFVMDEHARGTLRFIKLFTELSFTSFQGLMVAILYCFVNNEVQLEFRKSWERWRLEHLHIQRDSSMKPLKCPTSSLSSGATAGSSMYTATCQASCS

In the case of `C[C@@H](O)[C@H](NC(=O)CNC(=O)[C@H](CCC(=O)O)NC(=O)C(C)(C)NC(=O)[C@@H](N)Cc1c[nH]cn1)C(=O)N[C@@](C)(Cc1ccccc1F)C(=O)N[C@H](C(=O)N[C@@H](CO)C(=O)N[C@@H](CC(=O)O)C(=O)N[C@@H](CNC(=O)c1ccc([Si](F)(C(C)(C)C)C(C)(C)C)cc1)C(=O)N[C@@H](CCc1ccccc1)C(N)=O)[C@@H](C)O` [Peptide 5, H-L-His-Aib-L-Glu-Gly-L-Thr-L-(α-Me)Phe(2-F)-L-Thr-L-Ser-L-Asp-L-Dap(SiFA)-L-homoPhe-NH2], the “maximal radioligand displacement (of maximal radioligand binding)” value at human GLP-1 receptor [1] is 61–69%. For the same compound, the IC50 on human GLP-1 receptor [2] is 189 ± 35 nM. The “IC50 ± SD (result in words)” value on human GLP-1 receptor [2] (w/ BSA (1% BSA)) is listed as “no detectable affinity”.

Regarding “H-L-His-Aib-L-Glu-Gly-L-Thr-L-(α-Me)Phe(2-F)-L-Thr-L-Ser-L-Asp-O2Oc-L/D-Dap(SiFA)-L-Leu-L-Glu-NH2 [Peptide 13]”, on human GLP-1 receptor [2] (w/ and w/o BSA), the “IC50 ± SD (result in words)” value is “no radioligand displacement was observed; also recorded: no detectable affinity n = 2 (w/ and w/o BSA)”.

Take `NCCCC[C@H](N)C(=O)O` [L-lysine]: the “decrease of kidney uptake of [^111In]In-DTPA-exendin-4” value in series [3] is “did not show any effect”.

For the compound “H-L-His-Aib-L-Glu-Gly-L-Thr-L-(α-Me)Phe(2-F)-L-Thr-L-Ser-L-Asp-L-Val-L-Dap(SiFA)-NH2 [Peptide 9]”, at human GLP-1 receptor [2] (w/ and w/o BSA), the “IC50 ± SD (result in words)” value was “no affinity was detected; also recorded: no detectable affinity n = 2 (w/ and w/o BSA)”.

For `C[C@@H](O)[C@H](NC(=O)CNC(=O)[C@H](CCC(=O)O)NC(=O)C(C)(C)NC(=O)[C@@H](N)Cc1c[nH]cn1)C(=O)N[C@@](C)(Cc1ccccc1)C(=O)N[C@H](C(=O)N[C@@H](CO)C(=O)N[C@@H](CC(=O)O)C(=O)N[C@@H](CNC(=O)c1ccc([Si](F)(C(C)(C)C)C(C)(C)C)cc1)C(=O)N[C@@H](CCc1ccccc1)C(N)=O)[C@@H](C)O` [Peptide 4, H-L-His-Aib-L-Glu-Gly-L-Thr-L-(α-Me)Phe-L-Thr-L-Ser-L-Asp-L-Dap(SiFA)-L-homoPhe-NH2], the “maximal radioligand displacement (of maximal radioligand binding)” value at human GLP-1 receptor [1] was 61–69%. At human GLP-1 receptor [2], this compound registered an IC50 of 2400 nM. Also, the “IC50 ± SD (result in words)” value on human GLP-1 receptor [2] (w/ BSA (1% BSA)) is given as “no detectable affinity”.

With “H-L-His-Aib-L-Glu-Gly-L-Thr-L-(α-Me)Phe-L-Thr-L-Ser-L-Asp-L-Phe(4-I)-L-homoPhe-NH2 [Peptide 8]”, on human GLP-1 receptor [2] (w/ and w/o BSA), the “IC50 ± SD (result in words)” value was “eliminated any detectable affinity; also recorded: no detectable affinity n = 2 (w/ and w/o BSA)”.

“H-L-His-Aib-L-Glu-Gly-L-Thr-L-(α-Me)Phe-L-Thr-L-Ser-L-Asp-OH [Peptide 6]”: the “IC50 ± SD (result in words)” value at human GLP-1 receptor [2] (w/ BSA (1% BSA)) is “no detectable affinity n = 1 (w/ BSA)”.

`CC(C)C[C@H](NC(=O)[C@H](CNC(=O)c1ccc([Si](F)(C(C)(C)C)C(C)(C)C)cc1)NC(=O)[C@H](CO)NC(=O)[C@H](CCc1ccccc1)NC(=O)[C@@H](NC(=O)[C@H](CC(=O)O)NC(=O)[C@H](CO)NC(=O)[C@@H](NC(=O)[C@](C)(Cc1ccccc1F)NC(=O)[C@@H](NC(=O)CNC(=O)[C@H](CCC(=O)O)NC(=O)C(C)(C)NC(=O)[C@@H](N)Cc1c[nH]cn1)[C@@H](C)O)[C@@H](C)O)C(C)C)C(=O)N[C@@H](CCC(=O)O)C(N)=O` [Peptide 11, H-L-His-Aib-L-Glu-Gly-L-Thr-L-(α-Me)Phe(2-F)-L-Thr-L-Ser-L-Asp-L-Val-L-homoPhe-L-Ser-L-Dap(SiFA)-L-Leu-L-Glu-NH2] (H-H[Aib]EGT[αMePhe(2-F)]TSDV[hPhe]S[Dap](Benzoyl(4-SiFtBu2))LE-NH2) gave an IC50 on human GLP-1 receptor [2] of 7120 ± 2470 nM.

Regarding “H-L-His-Aib-L-Glu-Gly-L-Thr-L-(α-Me)Phe(2-F)-L-Thr-L-Ser-L-Asp-NH2 [Peptide 7]”, the “IC50 ± SD (result in words)” value at human GLP-1 receptor [2] (w/ and w/o BSA) is “no detectable affinity n = 2 (w/ and w/o BSA)”.

With `CC(C)C[C@H](NC(=O)[C@H](CNC(=O)c1ccc([Si](F)(C(C)(C)C)C(C)(C)C)cc1)NC(=O)[C@H](CO)NC(=O)[C@H](CO)NC(=O)[C@@H](NC(=O)[C@H](CC(=O)O)NC(=O)[C@H](CO)NC(=O)[C@@H](NC(=O)[C@](C)(Cc1ccccc1F)NC(=O)[C@@H](NC(=O)CNC(=O)[C@H](CCC(=O)O)NC(=O)C(C)(C)NC(=O)[C@@H](N)Cc1c[nH]cn1)[C@@H](C)O)[C@@H](C)O)C(C)C)C(=O)N[C@@H](CCC(=O)O)C(N)=O` [Peptide 10, H-L-His-Aib-L-Glu-Gly-L-Thr-L-(α-Me)Phe(2-F)-L-Thr-L-Ser-L-Asp-L-Val-L-Ser-L-Ser-L-Dap(SiFA)- L-Leu-L-Glu-NH2] (H-H[Aib]EGT[αMePhe(2-F)]TSDVSS[Dap](Benzoyl(4-SiFtBu2))LE-NH2), the IC50 at human GLP-1 receptor [2] is 2950 ± 310 nM.

“[Nle^14, [^125I]Tyr(3-I)^40]exendin-4 [[^125I]Tyr(3-I)^40-3]”: the RCP was ≥ 95% (n = 4) in series [4] (0 days after radioiodination, stock in HPLC solvent at −80 °C, n = 4); 95% in series [4] (4 days after radioiodination, stock in HPLC solvent at −80 °C); 95% in series [4] (9 days after radioiodination, stock in HPLC solvent at −80 °C); 92% in series [4] (16 days after radioiodination, stock in HPLC solvent at −80 °C); 82% in series [4] (20 days after radioiodination, stock in HPLC solvent at −80 °C); 82% in series [4] (24 days after radioiodination, stock in HPLC solvent at −80 °C). The RCP in series [4] (29 days after radioiodination, stock in HPLC solvent at −80 °C) is 78%; in series [4] (36 days after radioiodination, stock in HPLC solvent at −80 °C), 78%; in series [4] (stock solution used to a maximum of 14 days, −80 °C), over 92%.
